From patent publication EP1650209A1, “Griseusin derivatives and their use as antitumor agents” (Oncotest GmbH, priority 2004, dated 2006)
Values after ≈ are worked out from the molar mass of the structure shown.

Key:
Assay in all cases: Clonogenic assay, colony formation of tumor stem cells from xenografts
Type in all cases: cell-based, human
BXF 1036 = conditions: Bladder, xenograft BXF 1036, colony formation
Protocol: (§1) Using various human cancer xenografts in vitro, the concentrations of compound B which inhibit formation of tumor colonies of tumor stem cells by 50% (IC50) and 70% (IC70) are determined in a clonogenic assay. Specifically, each solid tumor of bladder cancer (BXF 1036 and BXF 1299), cervical cancer (CEXF 633 and CEXF 773), colic cancer (CXF 1103, CXF 158, CXF 1729, CXF 264 and CXF 280), gastric cancer (GXF 251 and GXF 97), head and neck cancer (HNXF 536), liver cancer (LIXF 575), non small cell lung cancer comprising adeno, squamous epithelium and large cell carcinoma (LXFA 1012, LXFA 289, LXFA 297, LXFA 526, LXFA 592, LXFA 629, LXFA 677, LXFE 409, LXFL 1072, LXFL 430LX and LXFL 529), small cell lung cancer (LXFS 650), mammary cancer (MAXF 1162, MAXF 1384, MAXF 401, MAXF 449, MAXF 574, MAXF 583, MAXF 713 and MAXF 857), melanoma (MEXF 1341, MEXF 462, MEXF 535 and MEXF 989), ovary cancer (OVXF 899), pancreatic cancer (PAXF 546 and PAXF 736), prostate cancer (DU-145 and PC3M), pleuramesothelioma (PXF 1752), renal cancer (RXF 1220, RXF 1393, RXF 393, RXF 631 and RXF 944LX), and sarcoma (SXF 1301 and SXF 463) engrafted on RPMI nu/nu thymus aplastic nude mice were explanted, disaggregated by mincing and enzymatic digestion for 50 minutes using 125 U/mL DNAse I, 41 U/mL collagenase IV, 100 U/ml hyaluronidase III, and 1 U/mL dispase I, and passed through sieves of 200 µm and 50 µm mesh size and washed twice with sterile PBS-buffer to remove cell aggregated from single cells. The clonogenic assay was performed in a 24 multiwell format. Each of the resulting single cell suspensions was added at a density of 2·10^4 to 6·10^4 cells per well to 0.2 ml of Iscove's Modified Dulbecco's Medium (IMDM) containing 20% fetal calf serum and 0.01% gentamicin supplemented with 0.4% (w/v) agar, and plated onto a bottom layer consisting of the same culture medium containing 0.75% (w/v) agar. After 24 hours IMDM containing 20% fetal calf serum and 0.01 % gentamicin, together with a test compound, was added there to. Then, the plate was incubated at 37°C for 10 to 20 days in a humidified atmosphere of air containing 7.5% CO2. Within this period, in vitro tumor growth led to the formation of colonies with a diameter of > 50µm. Colony counts were performed with an automatic image analysis system (OMNICON 3600). 24 hours prior to evaluation, vital colonies were stained with a vital staining dye. Therefore, 100 µl of a sterile aqueous solution of 2-(4-iodophenyl)-3-(4-nitrophenyl)-5-phenyltetrazolium chloride (1 mg/ml) were added to each well of the plate, and plates were incubated for 24 hours at 37°C in a humidified atmosphere of air containing 7.5% CO2. Inhibition of colony formation was expressed as test versus untreated control (T/C-value [%]). IC50 and IC70 values were determined by plotting compound concentration versus cell viability. Table 3: Inhibition of Colony Formation of Tumor Stem Cells by griseusin derivative B

SXF 1301 = conditions: Sarcoma, xenograft SXF 1301, colony formation
Protocol: as §1

LXFA 289 = conditions: Lung, non small cell, xenograft LXFA 289, colony formation
Protocol: as §1

MEXF 535 = conditions: Melanoma, xenograft MEXF 535, colony formation
Protocol: as §1

MAXF 401 = conditions: Breast, xenograft MAXF 401, colony formation
Protocol: as §1

PAXF 736 = conditions: Pancreas, xenograft PAXF 736, colony formation
Protocol: as §1

PC3M = conditions: Prostate, xenograft PC3M
Protocol: as §1

CXF 1729 = conditions: Colon, xenograft CXF 1729, colony formation
Protocol: as §1

LXFA 1012 = conditions: Lung, non small cell, xenograft LXFA 1012, colony formation
Protocol: as §1

LXFL 529 = conditions: Lung, non small cell, xenograft LXFL 529, colony formation
Protocol: as §1

RXF 631 = conditions: Kidney, xenograft RXF 631, colony formation
Protocol: as §1

RXF 393 = conditions: Kidney, xenograft RXF 393, colony formation
Protocol: as §1

RXF 1393 = conditions: Kidney, xenograft RXF 1393, colony formation
Protocol: as §1

LXFA 526 = conditions: Lung, non small cell, xenograft LXFA 526, colony formation
Protocol: as §1

MAXF 449 = conditions: Breast, xenograft MAXF 449, colony formation
Protocol: as §1

LXFA 592 = conditions: Lung, non small cell, xenograft LXFA 592, colony formation
Protocol: as §1

SXF 463 = conditions: Sarcoma, xenograft SXF 463, colony formation
Protocol: as §1

LXFE 409 = conditions: Lung, non small cell, xenograft LXFE 409, colony formation
Protocol: as §1

Work on `C[C@@H]1CC(=O)[C@@H](O)[C@]2(O1)O[C@@H]1CC(=O)O[C@@H]1C1=C2C(=O)c2c(O)cccc2C1=O` [Compound B, 4'-dehydro-deacetylgriseusin A] yielded an IC50 (BXF 1036) of 1.743 µg/mL (≈ 4.35 µM), an IC70 (BXF 1036) of 2.271 µg/mL (≈ 5.67 µM) and an IC50 (SXF 1301) of 0.328 µg/mL (≈ 0.819 µM). The IC70 (SXF 1301) was 0.517 µg/mL (≈ 1.29 µM), the IC50 (LXFA 289) was 0.218 µg/mL (≈ 0.545 µM) and the IC70 (LXFA 289) was 0.425 µg/mL (≈ 1.06 µM). For the same compound, the IC50 (MEXF 535) was 0.055 µg/mL (≈ 0.137 µM), the IC70 (MEXF 535) was 0.094 µg/mL (≈ 0.235 µM) and the IC50 (MAXF 401) was 0.478 µg/mL (≈ 1.19 µM). The IC70 (MAXF 401) was 0.782 µg/mL (≈ 1.95 µM), the IC50 (PAXF 736) was 0.246 µg/mL (≈ 0.614 µM) and the IC70 (PAXF 736) was 0.452 µg/mL (≈ 1.13 µM). For the same compound, the IC50 (PC3M) was 0.419 µg/mL (≈ 1.05 µM), the IC70 (PC3M) was 0.818 µg/mL (≈ 2.04 µM) and the IC50 (CXF 1729) was 0.453 µg/mL (≈ 1.13 µM). It also gave an IC70 (CXF 1729) of 0.630 µg/mL (≈ 1.57 µM), an IC50 (LXFA 1012) of 0.442 µg/mL (≈ 1.1 µM) and an IC70 (LXFA 1012) of 0.631 µg/mL (≈ 1.58 µM). For the same compound, the IC50 (LXFL 529) was 0.364 µg/mL (≈ 0.909 µM), the IC70 (LXFL 529) was 0.699 µg/mL (≈ 1.75 µM) and the IC50 (RXF 631) was 0.517 µg/mL (≈ 1.29 µM). The IC70 (RXF 631) was 0.719 µg/mL (≈ 1.8 µM), the IC50 (RXF 393) was 0.150 µg/mL (≈ 0.375 µM) and the IC70 (RXF 393) was 0.212 µg/mL (≈ 0.53 µM). The IC50 (RXF 1393) was 0.592 µg/mL (≈ 1.48 µM), the IC70 (RXF 1393) was 0.769 µg/mL (≈ 1.92 µM) and the IC50 (LXFA 526) was 0.300 µg/mL (≈ 0.749 µM). For the same compound, the IC70 (LXFA 526) was 0.512 µg/mL (≈ 1.28 µM), the IC50 (MAXF 449) was 0.400 µg/mL (≈ 0.999 µM) and the IC70 (MAXF 449) was 0.648 µg/mL (≈ 1.62 µM). For the same compound, the IC50 (LXFA 592) was 0.215 µg/mL (≈ 0.537 µM), the IC70 (LXFA 592) was 0.468 µg/mL (≈ 1.17 µM) and the IC50 (SXF 463) was 0.235 µg/mL (≈ 0.587 µM). The IC70 (SXF 463) was 0.334 µg/mL (≈ 0.834 µM), the IC50 (LXFE 409) was 1.732 µg/mL (≈ 4.33 µM) and the IC70 (LXFE 409) was 2.249 µg/mL (≈ 5.62 µM).
